Here are results for two compounds from patent publication US20240315947A1, “COSMETIC COMPOSITION COMPRISING MOLECULAR AGGREGATES OF BILE ACIDS OR BILE ACID SALTS” (SCAI THERAPEUTICS CO., LTD., priority 2021, published 2024).

On the set-up of series [1]: species or system SD rats. Conditions: rat, in vivo. From the text: The interscapular region (back of the neck near the ear) of 10-week-old SD rats (280-350 g) with sufficient subcutaneous adipose tissue was shaved and anesthetized.
In series [2] the test system is skin, subcutaneous tissue of the interscapular region. As to the kind of experiment: SD rat histological analysis (H&E, Masson's trichome staining). Conditions: subcutaneous injection, 500 μL of 1%. The series is classed as in vivo, SD rats. From the text:
The interscapular region (back of the neck near the ear) of 10-week-old SD rats (280-350 g) with sufficient subcutaneous adipose tissue was shaved and anesthetized. […].
Then, tissues (skin, subcutaneous tissue) of the interscapular region were collected, fixed, and subjected to H&E staining and Masson's trichome staining. Tissue changes were investigated through microscopic observation.

Another series deals with 3T3-L1 preadipocytes. As to the kind of experiment: Preadipocyte cytotoxicity (cell counting kit-8). Conditions: treated for 4 hours. The protocol: 3T3-L1 preadipocytes were inoculated into a 96 well plate at 5×10^3 per well, grown in medium (high glucose DMEM, 10% bovine calf serum, 1% penicillin/streptomycin) for 16 hours. The drug was prepared to contain 0.04% and 0.08%, respectively, and then treated for 4 hours. After adding 10 μl of Dojingo CK04-11 cell counting kit-8 to each well according to the manual, reacting for 2 hours, the absorbance at 450 nm was measured with a spectrophotometer to compare preadipocyte cytotoxicity.
Background: Tetrazolium dyes change colour on reduction, which living cells bring about.

Read-outs that look alike come from different tables or passages of the source.

Take `C[C@H](CCC(=O)O)[C@H]1CC[C@H]2[C@@H]3CC[C@@H]4C[C@H](O)CC[C@]4(C)[C@H]3C[C@H](O)[C@]12C` [deoxycholic acid]: the “amount of DCA in the subcutaneous tissue” value in series [1] is listed as “increased over time”. Moreover, the “amount of DCA in the subcutaneous tissue” value in series [1] (sc) is “gradually decreased”. In series [2], the “tissue damage (H&E staining)” value is reported as “severe tissue damage”; the “tissue findings at section creation (Masson's trichome staining)” value is “hematoma and edema”.
Turning to “Sodium deoxycholate [precursor of deoxycholic acid salt]”, the “preadipocyte cytotoxicity (comparison between test materials)” value in the series with 3T3-L1 preadipocytes (0.04%) was “the same”. Besides, the “survival rate of preadipocytes” value in the series with 3T3-L1 preadipocytes (0.08%) is reported as 24.6%.
